Experimental data published in US12534477B2, “Compound having KHK inhibitory effect” (HANGZHOU ZHONGMEIHUADONG PHARMACEUTICAL CO., LTD., priority 2019, dated 2026).
pIC50: −log10 of the molar value. Where two headings read alike, the source gives them in different places.

Columns and labels:
CYP1A2 = CYP1A2 (Homo sapiens (Human), UniProt P05177); assay type: in vitro ADME; settings: microsomes
Method: (§1) The inhibitory effect of test compounds on the activity of human hepatic microsomal cytochrome P450 isozymes (CYP1A2, CYP2C9, CYP2C19, CYP2D6 and CYP3A4) was determined.
(§2) First, the test compound (10 mM) was diluted in gradient to prepare working solutions (100×final concentration) with working solution concentrations: 5, 1.5, 0.5, 0.15, 0.05, 0.015, 0.005 mM, respectively, and at the same time, working solutions of each positive inhibitor of P450 isozymes (CYP1A2, CYP2C9, CYP2C19, CYP2D6 and CYP3A4) and its specific substrate mixture were prepared. Human liver microsomes frozen in a −80° C. refrigerator were thawed on ice, and diluted with PB (phosphate buffer) after all the human liver microsomes were dissolved, to prepare a working solution at a certain concentration (0.253 mg/mL). 20 μl substrate mixture was added to the reaction plate (20 μL PB was added to the Blank wells) while 158 μL human liver microsome working solution was added to the reaction plate which was placed on ice for later use. At this time, 2 μL of each concentration of the test compound (N=1) and the specific inhibitor (N=2) were added to the corresponding wells, and the corresponding organic solvents were added to the groups without inhibitors (the test compound or the positive inhibitor) as control samples (1:1 DMSO:MeOH for the test compound control sample, and 1:9 DMSO:MeOH for the positive control sample). After pre-incubation in 37° C. water bath for 10 min, 20 μL coenzyme factor (NADPH) solution was added to the reaction plate, and incubated in 37° C. water bath for 10 min. 400 μL cold acetonitrile solution (200 ng/mL Tolbutamide and Labetalol as the internal standard) was added to stop the reaction. The reaction plate was placed on a shaker and shaken for 10 min. The mixture was centrifuged at 4,000 rpm for 20 min, and 200 μl the supernatant was added to 100 μL water for sample dilution. Finally, the plate was sealed, shaken, mixed well and detected by LC/MS/MS.

[1] = molecular target: Recombinant Human Ketohexokinase (KHK) (Homo sapiens (Human), UniProt P50053); assay: Ketohexokinase assay (KHK assay), ADP-Glo; assay type: biochemical
Method: • 1. EnVision multilabel reader, Perkin Elmer; • 2. OptiPlate 384-well microplate, Perkin Elmer, Cat. No. 6007290; • 3. Recombinant Human Ketohexokinase (KHK), R&D Cat. No.: 8177-HK-020, Lot No.: DDFK0117092; • 4. Fructose (D(−)-Fructose), SCR Cat. No.: 36003034; and • 5. ADP-Glo kinase assay kit, Promega_Cat. No.: V9101.
1. preparation of Dilution Buffer containing 50 mM hydroxyethylpiperazine […] (Hepes), 140 mM KCl, 3.5 mM MgCl2, and 0.01% bovine serum albumin (BSA), pH 7.4.
2. A working solution of ketohexokinase at 2.5 times concentration was prepared with Dilution Buffer, with 50 nM ketohexokinase and 12.5 mM fructose.
3. A working solution of adenosine triphosphate (ATP) at 2.5 times concentration was prepared with Dilution Buffer, with a concentration of 250 μM.
4. Each compound was diluted starting at a concentration of 500 μM, 3-fold diluted for 9 concentration points. The final concentration of the compound in the reaction system started from 10 μM and the final concentration of dimethyl sulfoxide (DMSO) was 2%.
5. A 96-well plate was prepared as a reaction plate, and was incubated at room temperature for 5 min after adding 6 μL ketohexokinase working solution at 2.5 times concentration to each well and further adding 3 μL compound working solution to each well.
6. The first well of each row was a positive control for a compound, i.e. the same volume of the buffer was added to replace the compound and ketohexokinase. The last well was a negative control for the compound, i.e. the same volume of Dilution Buffer was added instead of the compound.
7. 6 μL ATP working solution was added to each well in a 96-well reaction plate to initiate the kinase reaction. The kinase reaction was incubated in a constant temperature heater at 28° C. for 1 h.
1. A384 plate was prepared as a detection plate, and firstly 5 μL ADP-Glo reagent was added.
2. 5 μL kinase reaction mixture from the reaction plate was added to each well and incubated in a constant temperature heater at 28° C. for 30 min.
3. 10 μL kinase detection reagent was added to each well and incubated in a constant temperature heater at 28° C. for 30 min.
4. The detection plate was placed in an EnVision multilabel reader to read the chemiluminescent signal.

[2] = Pharmacokinetic evaluation in SD rats; assay type: in vivo; settings: rat, plasma; for clearance: 1 mg/kg, read-out: Clearance rate; for clearance / bioavailability: IV 1 mpk; for bioavailability / AUC: PO 3 mpk; for bioavailability: read-out: Bioavailability F; for AUC: read-out: Integral concentration AUC for PO; for half-life: IV 1 mpk and PO 3 mpk study, read-out: Half-life T1/2 (converted)
Method: In vivo pharmacokinetics of compounds in SD rats were tested.
Pharmacokinetic profiles in rodents following intravenous and oral administration of the compounds were tested by standard protocols. In the experiment, candidate compounds were formulated as clear solutions or homogeneous suspensions, and were administered to rats by single intravenous injection (IV, 1 mpk) and oral administration (PO, 3 mpk). The vehicle for intravenous injection was a certain proportion of PEG400 in water, and the vehicle for oral administration was a certain proportion of methylcellulose and Tween 80 in water. Whole blood was collected, and plasma was prepared. Drug concentration was analyzed by LC-MS/MS, and pharmacokinetic parameters were calculated by Phoenix WinNonlin software.

[3] = Liver-blood ratio, tissue distribution in rats; assay type: in vivo, SD rats; settings: PO 1 mpk
Method: Tissue distribution of compounds in SD rats was tested.
In the experiment, candidate compounds were formulated as clear solutions and administered to rats in a single oral dose (PO, 1 mpk). The vehicle for oral administration was a certain proportion of methylcellulose and Tween 80 in water. Whole blood was collected at a certain time and plasma was prepared, and tissues were collected at the corresponding time and prepared into tissue homogenates. Drug concentration was analyzed by LC-MS/MS, and pharmacokinetic parameters were calculated by Phoenix WinNonlin software.

CYP2C9 = CYP2C9 (Homo sapiens (Human), UniProt P11712); assay: Inhibitory activity on human liver microsomal cytochrome P450 isozymes; assay type: in vitro ADME; settings: human liver microsomes
Method: as §1, §2

CYP3A4 = CYP3A4 (Homo sapiens (Human), UniProt P08684); assay: as above; assay type: in vitro ADME; settings: human liver microsomes
Method: as §1, §2

CYP2C19 = CYP2C19 (Homo sapiens (Human), UniProt P33261); assay: as above; assay type: in vitro ADME; settings: human liver microsomes
Method: as §1, §2

CYP2D6 = CYP2D6 (Homo sapiens (Human), UniProt P10635); assay: as above; assay type: in vitro ADME; settings: human liver microsomes
Method: as §1, §2

[4] = test system: fructose metabolism in mice; assay: Acute fructose feeding experiment in mice; assay type: in vivo; settings: compound 30 mpk, oral fructose 1 g/kg
Method: The effect of test compounds on the fructose content in mice with high fructose intake was investigated.
All animals were acclimated for one week in an animal house, fed with normal chow and fasted for 16 hours before being given fructose.
1) The experiment began at −0.5 hr. A control group was given a certain volume of vehicle (a certain proportion of methylcellulose and Tween 80 in water), and an experimental group was given a certain dose of a solution of the compound (the administered volume was consistent with the vehicle).
2) 0.5 hour later and before administration of a fructose solution, a blood sample was collected at 0 hr, followed by oral administration of 1 g/kg of an aqueous fructose solution.
3) After the administration of fructose, blood samples were collected from saphenous vein of mice at 0.25, 0.5, 1, 2, 3 and 8 hr, and fructose concentration was analyzed by LC-MS/MS.

[5] = SD, rat, liver, 1 mg/kg, 1.5 h, read-out: Liver tissue concentration
[6] = SD, rat, liver, 1 mg/kg, 2.0 h, read-out: Liver tissue concentration
[7] = SD, rat, liver, 1 mg/kg, 6.0 h, read-out: Liver tissue concentration
[8] = SD, rat, liver/plasma, 1 mg/kg, 1.5 h, read-out: Liver-blood ratio
[9] = SD, rat, liver/plasma, 1 mg/kg, 2.0 h, read-out: Liver-blood ratio
[10] = SD, rat, liver/plasma, 1 mg/kg, 6.0 h, read-out: Liver-blood ratio
[11] = SD, rat, plasma, 1 mg/kg, 1.5 h, read-out: Plasma concentration
[12] = SD, rat, plasma, 1 mg/kg, 2.0 h, read-out: Plasma concentration
[13] = SD, rat, plasma, 1 mg/kg, 6.0 h, read-out: Plasma concentration
[14] = 1.5 h, read-out: Brain tissue concentration
[15] = 1.5 h, read-out: Liver tissue concentration
[16] = 2.0 h, read-out: Brain tissue concentration
[17] = 2.0 h, read-out: Liver tissue concentration
[18] = 6.0 h, read-out: Liver tissue concentration

Sequence of CYP2C9 (P11712 whole entry): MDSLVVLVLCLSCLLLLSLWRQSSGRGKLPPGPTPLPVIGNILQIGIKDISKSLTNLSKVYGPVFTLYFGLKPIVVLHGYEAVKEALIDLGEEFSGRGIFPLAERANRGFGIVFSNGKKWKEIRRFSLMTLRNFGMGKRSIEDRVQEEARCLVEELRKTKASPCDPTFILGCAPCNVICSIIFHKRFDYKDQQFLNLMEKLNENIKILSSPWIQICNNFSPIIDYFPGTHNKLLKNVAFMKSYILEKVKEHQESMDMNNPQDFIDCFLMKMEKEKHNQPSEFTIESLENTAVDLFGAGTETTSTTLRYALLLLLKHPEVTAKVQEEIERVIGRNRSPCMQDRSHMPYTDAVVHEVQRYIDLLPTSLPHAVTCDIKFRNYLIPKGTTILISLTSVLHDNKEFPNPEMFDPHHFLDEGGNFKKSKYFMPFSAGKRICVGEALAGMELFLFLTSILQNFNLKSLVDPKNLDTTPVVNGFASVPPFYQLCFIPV
Sequence of CYP2D6 (P10635 whole entry): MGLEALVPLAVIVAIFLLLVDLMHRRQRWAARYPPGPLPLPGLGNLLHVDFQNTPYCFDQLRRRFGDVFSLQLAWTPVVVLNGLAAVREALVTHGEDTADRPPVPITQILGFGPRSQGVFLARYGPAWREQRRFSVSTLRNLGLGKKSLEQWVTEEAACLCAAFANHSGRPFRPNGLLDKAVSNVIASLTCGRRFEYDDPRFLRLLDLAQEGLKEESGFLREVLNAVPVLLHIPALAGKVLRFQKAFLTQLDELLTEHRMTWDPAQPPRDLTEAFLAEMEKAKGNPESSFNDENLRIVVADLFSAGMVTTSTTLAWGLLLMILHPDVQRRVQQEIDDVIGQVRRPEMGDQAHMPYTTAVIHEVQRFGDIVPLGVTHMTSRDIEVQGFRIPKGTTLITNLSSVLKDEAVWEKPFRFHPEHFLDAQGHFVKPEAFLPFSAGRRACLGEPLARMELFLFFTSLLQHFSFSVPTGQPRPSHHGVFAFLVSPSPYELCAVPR
Sequence of CYP2C19 (P33261 whole entry): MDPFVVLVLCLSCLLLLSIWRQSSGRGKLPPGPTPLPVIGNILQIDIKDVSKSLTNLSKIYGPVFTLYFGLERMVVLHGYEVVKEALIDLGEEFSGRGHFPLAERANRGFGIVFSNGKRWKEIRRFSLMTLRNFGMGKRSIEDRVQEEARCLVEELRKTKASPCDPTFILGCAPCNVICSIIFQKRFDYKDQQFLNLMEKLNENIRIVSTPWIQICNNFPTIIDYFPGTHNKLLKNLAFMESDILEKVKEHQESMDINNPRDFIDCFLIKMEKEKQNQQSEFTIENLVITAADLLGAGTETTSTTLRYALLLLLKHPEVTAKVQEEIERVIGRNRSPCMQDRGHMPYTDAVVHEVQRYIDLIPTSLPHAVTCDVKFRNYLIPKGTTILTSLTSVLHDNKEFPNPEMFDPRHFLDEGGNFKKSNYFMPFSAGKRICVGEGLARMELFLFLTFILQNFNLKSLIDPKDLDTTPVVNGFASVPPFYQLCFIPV
Sequence of CYP3A4 (P08684 whole entry): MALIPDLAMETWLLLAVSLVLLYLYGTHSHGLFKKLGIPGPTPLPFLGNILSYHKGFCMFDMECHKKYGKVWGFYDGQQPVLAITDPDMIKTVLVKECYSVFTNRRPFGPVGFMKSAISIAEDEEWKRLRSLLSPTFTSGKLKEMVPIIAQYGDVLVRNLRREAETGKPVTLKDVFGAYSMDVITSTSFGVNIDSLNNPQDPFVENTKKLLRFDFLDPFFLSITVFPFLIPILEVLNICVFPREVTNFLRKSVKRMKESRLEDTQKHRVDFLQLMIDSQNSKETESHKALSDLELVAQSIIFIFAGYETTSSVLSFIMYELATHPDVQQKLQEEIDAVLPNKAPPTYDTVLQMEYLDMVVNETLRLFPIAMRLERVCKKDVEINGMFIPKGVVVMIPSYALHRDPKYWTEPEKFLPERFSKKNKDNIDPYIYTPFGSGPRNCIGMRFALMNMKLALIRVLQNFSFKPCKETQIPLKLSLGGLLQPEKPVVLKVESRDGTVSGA
Sequence of CYP1A2 (P05177 whole entry): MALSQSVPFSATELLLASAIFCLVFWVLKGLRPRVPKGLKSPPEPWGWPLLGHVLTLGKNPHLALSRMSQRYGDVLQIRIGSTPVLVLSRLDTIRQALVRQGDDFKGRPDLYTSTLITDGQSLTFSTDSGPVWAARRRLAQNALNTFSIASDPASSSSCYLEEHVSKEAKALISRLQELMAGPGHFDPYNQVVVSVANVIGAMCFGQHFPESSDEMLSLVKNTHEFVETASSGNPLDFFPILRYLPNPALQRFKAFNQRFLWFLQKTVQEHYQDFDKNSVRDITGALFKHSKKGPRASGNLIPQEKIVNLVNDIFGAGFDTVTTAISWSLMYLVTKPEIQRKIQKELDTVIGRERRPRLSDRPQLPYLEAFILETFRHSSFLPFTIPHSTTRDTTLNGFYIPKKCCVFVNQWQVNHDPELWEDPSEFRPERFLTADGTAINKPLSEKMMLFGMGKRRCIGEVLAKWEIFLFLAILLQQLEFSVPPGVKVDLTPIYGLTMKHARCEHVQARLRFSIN
Sequence of Recombinant Human Ketohexokinase (KHK) (P50053 whole entry): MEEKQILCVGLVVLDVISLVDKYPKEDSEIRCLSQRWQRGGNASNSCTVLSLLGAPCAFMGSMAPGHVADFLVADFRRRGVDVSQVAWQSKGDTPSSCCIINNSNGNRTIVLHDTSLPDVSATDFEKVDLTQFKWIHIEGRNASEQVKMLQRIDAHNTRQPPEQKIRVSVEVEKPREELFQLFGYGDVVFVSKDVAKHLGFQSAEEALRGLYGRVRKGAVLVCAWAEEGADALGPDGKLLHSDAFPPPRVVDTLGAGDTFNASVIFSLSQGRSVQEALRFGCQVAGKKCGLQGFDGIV

| pIC50 (CYP1A2; human, 10 min) | pIC50 [1] | clearance [2] | bioavailability ([2]; 3 mg/kg) | AUC ([2]; 3 mg/kg) | half-life [2] | concentration at 1.5 h [3, 5] | concentration at 2 h [3, 6] | concentration at 6 h [3, 7] | Kp at 1.5 h [3, 8] | Kp at 2 h [3, 9] | Kp at 6 h [3, 10] | concentration at 1.5 h [3, 11] | concentration at 2 h [3, 12] | concentration at 6 h [3, 13] | pIC50 (CYP2C9) | pIC50 (CYP3A4) | pIC50 (CYP2C19) | pIC50 (CYP2D6) | pIC50 (CYP1A2) | SMILES | also measured |
| --- | --- | --- | --- | --- | --- | --- | --- | --- | --- | --- | --- | --- | --- | --- | --- | --- | --- | --- | --- | --- | --- |
| < 4.30 | 7.60 | 1.05 mL/min/kg | 44% | 39.5 µM·h | 2.63 h | 2420 nM | 2860 nM | 2180 nM | 1.2 | 0.92 | 1.25 | 2010 nM | 3100 nM | 1780 nM | < 4.30 | < 4.30 | < 4.30 | < 4.30 |  | C[C@H]1CCN1c1nc(Nc2ccc(CC(=O)O)cc2)c2ccsc2n1 [WX006] |  |
|  |  | 5.37 mL/min/kg |  | 12 µM·h | 5.83 h |  |  |  |  |  |  |  |  |  | < 4.30 | < 4.30 | < 4.30 | < 4.30 | < 4.30 | C[C@H]1CCN1c1nc(N2CC3(C[C@H]3C(=O)O)C2)c2c(n1)C(F)(F)CC2 [WX043] | AUC of integral fructose concentration for dosed group [4]: 3504 nM·h; AUC of integral fructose concentration of dosed group/AUC of Integral fructose concentration of control group [4]: 13.3; bioavailability [2]: 70%; Brain-blood ratio ([3]; 1.5 h): 0.016; Liver-blood ratio ([3]; 1.5 h): 20.0; Plasma concentration ([3]; 1.5 h): 2025 nM; concentration at 6 h [3, 14]: 30.6 nM; concentration at 1.5 h [3, 15]: 38250 nM; Brain-blood ratio ([3]; 2.0 h): 0.014; Liver-blood ratio ([3]; 2.0 h): 30.0; Plasma concentration ([3]; 2.0 h): 916 nM; concentration at 6 h [3, 16]: 13.1 nM; concentration at 1.5 h [3, 17]: 27800 nM; Liver-blood ratio ([3]; 6.0 h): 81.5; Plasma concentration ([3]; 6.0 h): 246 nM; concentration at 1.5 h [3, 18]: 19800 nM |
| < 4.30 | 6.74 | 1.04 mL/min/kg | 158% | 163 µM·h | 3.12 h | 2440 nM | 4270 nM | 1790 nM | 0.491 | 0.469 | 0.549 | 4880 nM | 9090 nM | 3320 nM | < 4.30 | < 4.30 | < 4.30 | < 4.30 |  | C[C@H]1CCN1c1nc(N2C[C@@H]3[C@@H](CC(=O)O)[C@@H]3C2)c2ncsc2n1 [WX001] | concentration at 1.5 h ([3]; SD, rat, brain, 1 mg/kg, 1.5 h, read-out: Brain tissue concentration): 72.8 nM; concentration at 2 h ([3]; SD, rat, brain, 1 mg/kg, 2.0 h, read-out: Brain tissue concentration): 162 nM; concentration at 6 h ([3]; SD, rat, brain, 1 mg/kg, 6.0 h, read-out: Brain tissue concentration): 91.5 nM; Kp at 1.5 h ([3]; SD, rat, brain/plasma, 1 mg/kg, 1.5 h, read-out: Brain-blood ratio): 0.015; Kp at 2 h ([3]; SD, rat, brain/plasma, 1 mg/kg, 2.0 h, read-out: Brain-blood ratio): 0.017; Kp at 6 h ([3]; SD, rat, brain/plasma, 1 mg/kg, 6.0 h, read-out: Brain-blood ratio): 0.02 |
|  |  | 8.13 mL/min/kg |  | 20.5 µM·h | 2.27 h |  |  |  |  |  |  |  |  |  | < 4.30 | < 4.30 | < 4.30 | < 4.30 | < 4.30 | C[C@H]1CCN1c1nc(N2CC3(C[C@@H]3C(=O)O)C2)c2c(n1)C(F)(F)CC2 [WX042] | AUC of integral fructose concentration for dosed group [4]: 3400 nM·h; AUC of integral fructose concentration of dosed group/AUC of Integral fructose concentration of control group [4]: 12.9; bioavailability [2]: 176%; Brain-blood ratio ([3]; 1.5 h): 0.0375; Liver-blood ratio ([3]; 1.5 h): 9.53; Plasma concentration ([3]; 1.5 h): 3314 nM; concentration at 6 h [3, 14]: 76.2 nM; concentration at 1.5 h [3, 15]: 19900 nM; Brain-blood ratio ([3]; 2.0 h): 0.0211; Liver-blood ratio ([3]; 2.0 h): 6.78; Plasma concentration ([3]; 2.0 h): 3045 nM; concentration at 6 h [3, 16]: 62.2 nM; concentration at 1.5 h [3, 17]: 20600 nM; Liver-blood ratio ([3]; 6.0 h): 26.2; Plasma concentration ([3]; 6.0 h): 259 nM; concentration at 1.5 h [3, 18]: 6710 nM |
